This is an account of results in patent publication US8637510B2, “Morpholinothiazoles as alpha 7 positive allosteric modulators” (Janssen Pharmaceutica NV, priority 2009, dated 2014).

The target in assay [1] is T1, human alpha 7-wt nAChR (Homo sapiens, UniProt P36544).
T1 construct: expressed in transfected cells
The experiment in a line: Ca2+ flux imaging (FDSS) (Protocol B). It counts as cell-based. The following applies: for Emax: efficacy of 100 μM choline defined as 100% in the absence of a PAM, read-out: a7-PAM-G_[33]_Eff_Curve_FI % Efficacy; for EC50: potentiation of 100 μM choline, compounds 0.01 μM to 30 μM, read-out: a7-PAM-G_[33]_pEC50 pEC50 (converted). In outline:
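PAM activity was measured as FDSS calcium fluorescence in α7-wt nAChR cells loaded with 2 μM Fluo-4AM, with compounds at 0.01–30 μM added alongside or 10 min ahead of sub-maximal 100 μM choline. Peak responses were normalised to choline-only efficacy, and EC50 was taken at half-maximal effect.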

For assay [2], the target named is T2, human alpha 7-wt nAChR-expressing GH4C1 cells (Homo sapiens, UniProt P36544).
T2 construct: expressed in transfected cells
The assay can be described thus: Patch-clamp current recording (whole-cell voltage-clamp, PAM type classification). The class given is cell-based. Further details: key: Type 0 compounds minimally change the effect size of the current elicited by 1 mM choline.; Type 1 compounds enhance the effect size of the current elicited by 1 mM choline but minimally alter the kinetics of the receptor.; Type 2 compounds enhance the effect size of the current elicited by 1 mM choline while reducing the rate and/or the extent of desensitization.; Type 3 compounds enhance the effect size of the current elicited by 1 mM choline. When tested at higher concentrations up to 10 μM they completely inhibit desensitization; Type 4 compounds allow for an initial desensitization of the receptor followed by a re-opening of the receptor during agonist application. The settings on record: 1 mM choline. Here is the method: The compounds of the present invention are classified as type 1-4, based on qualitative kinetic properties, as determined by whole-cell voltage-clamp recordings. This classification is based on the effect of an alpha 7 PAM compound, as described hereinbefore, on the signal elicited by an agonist application. In particular, said agonist is choline at a concentration of 1 mM. In a preferred experimental setting, said alpha 7 PAM compound and choline are simultaneously applied to the cell, as described hereinafter. Desensitization is defined as the closure of the receptor upon activation during the application of the agonist in whole-cell voltage-clamp electrophysiology measurements seen as the reduction of the […] current after initial activation by the agonist.
The definition of the PAM types 1-4 is described hereinafter: • Type 0 compounds minimally change the effect size of the current elicited by 1 mM choline. • Type 1 compounds enhance the effect size of the current elicited by 1 mM choline but minimally alter the kinetics of the receptor. In particular, the rate and the extent of desensitization and of deactivation of the receptor elicited by the agonist is not affected. The compound-modulated response to 1 mM choline, therefore, is close to a linear scaling of the 1 mM choline response in absence of the alpha 7 PAM compound. • Type 2 compounds enhance the effect size of the current elicited by 1 mM choline while reducing the rate and/or the extent of desensitization. Deactivation of the receptor is generally unaffected. • Type 3 compounds enhance the effect size of the current elicited by 1 mM choline. […] Deactivation of the receptor may be slowed down • Type 4 compounds allow for an initial desensitization of the receptor followed by a re-opening of the receptor during agonist application. At low-potency concentrations of the alpha 7 PAM compound, the agonist-induced activation, which is followed by desensitization, can still be separated from the compound-induced re-opening as an initial inward current-maximum. At higher potency concentrations of the alpha 7 PAM compound, the re-opening occurs faster than the closure due to desensitization so that the initial current-maximum disappears.
A compound was considered to have interesting PAM-like activity when the potentiation of the peak current was at least 200% compared to the control choline response (=100%). Such compounds are classified as belonging to a particular PAM type in the Experimental Part. Compounds not meeting the condition are not classified as belonging to a particular PAM-type.
The compounds also have a potentiating effect on the response to choline when measured by whole-cell patch clamp electrophysiology in GH4C1 cells stably over-expressing the human wild-type alpha 7 receptor.
Patch-clamp recording from mammalian cells has provided a powerful means of assessing the function of membrane-bound proteins thought to be subunits of ligand-gated ion channels. Activation of such proteins by endogenous or exogenous ligands cause opening of a pore associated with the receptor through which ions flow down their electrochemical gradient. In the case of the human alpha 7-wt nAChR-expressing GH4C1 recombinant cell line the preferential permeability to calcium of this receptor means that calcium flows into the cell upon activation by ACh, choline and other nicotinic ligands giving rise to a calcium current. Since this receptor rapidly desensitizes in the presence of agonist it is important that an application system is used which is capable of very rapid switching of solutions (<100 ms) to prevent partial or full desensitisation of receptor responses coincident with the time of agonist application. Consequently, a second convenient technique to assess the enhancement of nicotinic efficacy is a patch-clamp recording from human alpha 7-wt nAChR-expressing GH4C1 cells coupled with a rapid-application system. […]

T2 sequence (P36544 23-502): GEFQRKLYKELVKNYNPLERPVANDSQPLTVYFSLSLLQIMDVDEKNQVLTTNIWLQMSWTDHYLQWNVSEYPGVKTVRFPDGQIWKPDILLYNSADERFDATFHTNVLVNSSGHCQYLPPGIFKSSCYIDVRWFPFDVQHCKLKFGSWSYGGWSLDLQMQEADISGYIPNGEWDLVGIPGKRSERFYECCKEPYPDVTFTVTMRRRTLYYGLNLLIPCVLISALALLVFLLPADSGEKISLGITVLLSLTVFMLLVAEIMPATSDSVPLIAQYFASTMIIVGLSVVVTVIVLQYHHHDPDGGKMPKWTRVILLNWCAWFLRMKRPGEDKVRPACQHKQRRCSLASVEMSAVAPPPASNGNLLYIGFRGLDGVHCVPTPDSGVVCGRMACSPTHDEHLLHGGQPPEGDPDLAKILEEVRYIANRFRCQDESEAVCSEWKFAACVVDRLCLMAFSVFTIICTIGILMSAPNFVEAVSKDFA
T1 sequence (P36544 23-502): as above

Regarding `Cc1cc(-c2sc(N3C[C@@H](C)O[C@@H](C)C3)nc2CNC(=O)c2ccc(Cl)cc2Cl)cc(C)n1` [Compound 10, 2,4-dichloro-N-[[2-[(2R,6S)-2,6-dimethyl-4-morpholinyl]-5-(2,6-dimethyl-4-pyridinyl)-4-thiazolyl]methyl]-benzamide], in assay [1], the Emax was found to be 630% and the EC50 was 83.2 nM. Further, in assay [2], the “PAM_Type PAM type” value is listed as 2.

Regarding `Cc1cc(-c2sc(N3C[C@@H](C)O[C@@H](C)C3)nc2CNC(=O)C(C)C)cc(C)n1` [Compound 40, N-[[2-[(2R,6S)-2,6-dimethyl-4-morpholinyl]-5-(2,6-dimethyl-4-pyridinyl)-4-thiazolyl]methyl]-2-methyl-propanamide], in assay [1], the Emax was 965% and the EC50 was 100 nM. Moreover, the “PAM_Type PAM type” value in assay [2] is listed as 2.

Take `Cc1cc(-c2sc(N3C[C@@H](C)O[C@@H](C)C3)nc2CNC(=O)c2ccc(F)c(F)c2F)cc(C)n1` [Compound 14, N-[[2-[(2R,6S)-2,6-dimethyl-4-morpholinyl]-5-(2,6-dimethyl-4-pyridinyl)-4-thiazolyl]methyl]-2,3,4-trifluoro-benzamide]: in assay [1], the Emax came to 787% and the EC50 was 339 nM. For the same compound, in assay [2], the “PAM_Type PAM type” value is 2.

Regarding `Cc1cc(-c2sc(N3C[C@@H](C)O[C@@H](C)C3)nc2CNC(=O)c2cccnc2C)cc(C)n1` [Compound 17, N-[[2-[(2R,6S)-2,6-dimethyl-4-morpholinyl]-5-(2,6-dimethyl-4-pyridinyl)-4-thiazolyl]methyl]-2-methyl-3-pyridinecarboxamide], in assay [1], the Emax worked out at 499% and the EC50 is 1000 nM. Besides, in assay [2], the “PAM_Type PAM type” value is given as 2.

With `Cc1cc(-c2sc(N3C[C@@H](C)O[C@@H](C)C3)nc2CNC(=O)c2cccc(F)c2F)cc(C)n1` [Compound 32, N-[[2-[(2R,6S)-2,6-dimethyl-4-morpholinyl]-5-(2,6-dimethyl-4-pyridinyl)-4-thiazolyl]methyl]-2,3-difluoro-benzamide], in assay [1], the Emax was found to be 422% and the EC50 is 380 nM. Besides, in assay [2], the “PAM_Type PAM type” value was 1.

Regarding `Cc1cc(-c2sc(N3C[C@@H](C)O[C@@H](C)C3)nc2CNC(=O)c2ccc(Cl)cc2)cc(C)n1` [Compound 19, 4-chloro-N-[[2-[(2R,6S)-2,6-dimethyl-4-morpholinyl]-5-(2,6-dimethyl-4-pyridinyl)-4-thiazolyl]methyl]-benzamide], in assay [1], the Emax came to 378% and the EC50 was 100 nM. For the same compound, the “PAM_Type PAM type” value in assay [2] came to 2.

In the case of `Cc1cc(-c2sc(N3C[C@@H](C)O[C@@H](C)C3)nc2CNC(=O)c2cccc(Cl)c2)cc(C)n1` [Compound 9, 3-chloro-N-[[2-[(2R,6S)-2,6-dimethyl-4-morpholinyl]-5-(2,6-dimethyl-4-pyridinyl)-4-thiazolyl]methyl]-benzamide], in assay [1], the Emax amounted to 566% and the EC50 is 240 nM. Also, in assay [2], the “PAM_Type PAM type” value turned out to be 2.

Regarding `Cc1cc(-c2sc(N3C[C@@H](C)O[C@@H](C)C3)nc2CNC(=O)c2cc(F)cc(F)c2)cc(C)n1` [Compound 15, N-[[2-[(2R,6S)-2,6-dimethyl-4-morpholinyl]-5-(2,6-dimethyl-4-pyridinyl)-4-thiazolyl]methyl]-3,5-difluoro-benzamide], in assay [1], the Emax stood at 411% and the EC50 is 170 nM. In assay [2], the “PAM_Type PAM type” value amounted to 2.

Consider `Cc1cc(-c2sc(N3C[C@@H](C)O[C@@H](C)C3)nc2CNC(=O)c2ccc(F)cc2F)cc(C)n1` [Compound 13, N-[[2-[(2R,6S)-2,6-dimethyl-4-morpholinyl]-5-(2,6-dimethyl-4-pyridinyl)-4-thiazolyl]methyl]-2,4-difluoro-benzamide], for which, in assay [1], the Emax came out at 593% and the EC50 was 288 nM. In assay [2], the “PAM_Type PAM type” value was found to be 2.

As for `Cc1cc(-c2sc(N3C[C@@H](C)O[C@@H](C)C3)nc2CNC(=O)COCC(F)(F)F)cc(C)n1` [Compound 175, N-[[2-[(2R,6S)-2,6-dimethyl-4-morpholinyl]-5-(2,6-dimethyl-4-pyridinyl)-4-thiazolyl]methyl]-2-(2,2,2-trifluoroethoxy)-acetamide], the EC50 in assay [1] is 525 nM. Further, the “PAM_Type PAM type” value in assay [2] was found to be 1.

Turning to `Cc1cc(-c2sc(N3C[C@@H](C)O[C@@H](C)C3)nc2CNC(=O)c2cccc(F)c2)cc(C)n1` [Compound 7, N-[[2-[(2R,6S)-2,6-dimethyl-4-morpholinyl]-5-(2,6-dimethyl-4-pyridinyl)-4-thiazolyl]methyl]-3-fluoro-benzamide], in assay [1], the Emax was determined as 723% and the EC50 is 316 nM. In addition, the “PAM_Type PAM type” value in assay [2] is 2.

For the compound `Cc1cc(-c2sc(N3CCOC(C)C3)nc2CNC(=O)c2conc2C)cc(C)n1` (single isomer, unassigned) [Compound 73, N-[[5-(2,6-dimethyl-4-pyridinyl)-2-[(2R*)-2-methyl-4-morpholinyl]-4-thiazolyl]methyl]-3-methyl-4-isoxazolecarboxamide], the EC50 in assay [1] is 724 nM. For the same compound, the “PAM_Type PAM type” value in assay [2] came to 2.

For the compound `Cc1cc(-c2sc(N3C[C@@H](C)O[C@@H](C)C3)nc2CNC(=O)Cc2c(C)noc2C)cc(C)n1` [Compound 166, N-[[2-[(2R,6S)-2,6-dimethyl-4-morpholinyl]-5-(2,6-dimethyl-4-pyridinyl)-4-thiazolyl]methyl]-3,5-dimethyl-4-isoxazoleacetamide], in assay [1], the EC50 is 525 nM. Further, the “PAM_Type PAM type” value in assay [2] came to 1.

Consider `COc1cc(-c2sc(N3C[C@@H](C)O[C@@H](C)C3)nc2CNC(=O)c2conc2C)cc(C)n1` [Compound 81, N-[[2-[(2R,6S)-2,6-dimethyl-4-morpholinyl]-5-(2-methoxy-6-methyl-4-pyridinyl)-4-thiazolyl]methyl]-3-methyl-4-isoxazolecarboxamide], for which, in assay [1], the Emax came out at 384% and the EC50 is 295 nM. Further, the “PAM_Type PAM type” value in assay [2] is 2.

As for `Cc1cc(-c2sc(N3C[C@@H](C)O[C@@H](C)C3)nc2CNC(=O)C(C)C2CC2)cc(C)n1` (stereo partly drawn) [Compound 179, N-[[2-[(2R,6S)-2,6-dimethyl-4-morpholinyl]-5-(2,6-dimethyl-4-pyridinyl)-4-thiazolyl]methyl]-α-methyl-cyclopropaneacetamide], in assay [1], the Emax amounted to 707% and the EC50 was 97.7 nM. Further, the “PAM_Type PAM type” value in assay [2] came to 2.

With `Cc1cc(-c2sc(N3C[C@@H](C)O[C@@H](C)C3)nc2CNC(=O)c2ccc(F)cc2C)cc(C)n1` [Compound 24, N-[[2-[(2R,6S)-2,6-dimethyl-4-morpholinyl]-5-(2,6-dimethyl-4-pyridinyl)-4-thiazolyl]methyl]-4-fluoro-2-methyl-benzamide], in assay [1], the Emax stood at 526% and the EC50 was 17.4 nM. In addition, the “PAM_Type PAM type” value in assay [2] came out at 2.
